Source: PubChem BioAssay (NCI)
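Each compound was tested at five concentrations against cells in 96-well plates for 48 hours. GI50 is the concentration that inhibits growth by half. TGI: total growth inhibition.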

Tests used:
Experiment in all cases: growth of human tumour cells (NCI), 48 h
HCC-2998 colon = system: HCC-2998 colon
UACC-257 melanoma = system: UACC-257 melanoma
COLO 205 colon = system: COLO 205 colon
SK-MEL-2 melanoma = system: SK-MEL-2 melanoma
SK-OV-3 ovarian = system: SK-OV-3 ovarian
HCT-116 colon = system: HCT-116 colon
HT29 colon = system: HT29 colon
SW-620 colon = system: SW-620 colon
TK-10 renal = system: TK-10 renal
DU-145 prostate = system: DU-145 prostate

Compound | GI50 (HCC-2998 colon) [µM] | TGI (HCC-2998 colon) [µM] | GI50 (UACC-257 melanoma) [µM] | TGI (UACC-257 melanoma) [µM] | GI50 (COLO 205 colon) [µM] | TGI (COLO 205 colon) [µM] | GI50 (SK-MEL-2 melanoma) [µM] | TGI (SK-MEL-2 melanoma) [µM] | GI50 (SK-OV-3 ovarian) [µM] | TGI (SK-OV-3 ovarian) [µM] | GI50 (HCT-116 colon) [µM] | TGI (HCT-116 colon) [µM] | GI50 (HT29 colon) [µM] | TGI (HT29 colon) [µM] | GI50 (SW-620 colon) [µM] | TGI (SW-620 colon) [µM] | GI50 (TK-10 renal) [µM] | TGI (TK-10 renal) [µM] | TGI (DU-145 prostate) [µM] | GI50 (DU-145 prostate) [µM]
Cc1cccc2nc3cccc(C(=O)NCCNCCNCCNC(=O)c4cccc5nc6cccc(C)c6nc45)c3nc12 | 0.0416 | 0.837 | 0.0557 | 1.76 | < 0.01 | 0.7 | < 0.01 | 0.186 | 0.0933 | 12.8 | < 0.01 | > 35.8 | < 0.01 | 0.254 | < 0.01 | 3.5 | < 0.0147 | 0.846 | – | –
COc1ccc2c(Cc3c4ccccc4cc4ccccc34)cncc2c1O | – | – | – | 14 | – | 34.4 | – | 17.5 | – | > 40.5 | – | 16.1 | – | 33.5 | – | > 100 | – | 17.6 | > 22.4 | –
Cc1cc(=O)n2c3c(c4c(cc13)c(CO)cc(=O)n4C)OC2 | – | 44.8 | – | > 100 | – | > 100 | – | 25.1 | – | > 100 | – | 15.8 | – | > 100 | – | > 100 | – | 62.4 | – | –
N.N.O=P([O-])([O-])CN(CCN(CP(=O)([O-])[O-])CP(=O)([O-])[O-])CP(=O)([O-])[O-].[Pt+2] | > 100 | > 100 | > 100 | > 100 | > 100 | > 100 | > 100 | > 100 | > 100 | > 100 | > 100 | > 100 | > 100 | > 100 | > 100 | > 100 | > 100 | > 100 | – | –
O=C(/C=C/c1ccccc1Cl)c1cccc2ccccc12 | – | 27.9 | – | 32 | – | 33.3 | – | 35.5 | – | 34.8 | – | 12.8 | – | 23.6 | – | 4.06 | – | 29.2 | – | –
CCOC(=O)C1=C(C)N(Cc2ccccc2)C(=O)C1CC#N (stereo not drawn) | – | > 100 | – | > 100 | – | > 100 | – | > 100 | – | > 100 | – | > 100 | – | > 100 | – | > 100 | – | – | – | –
CC(C)=CCC1=C(OCC(=O)O)C(=O)c2ccccc2C1=O | – | – | – | 76 | – | > 100 | – | 84.2 | – | > 100 | – | 66.8 | – | > 100 | – | 76.6 | – | > 100 | > 100 | –
C[C@]12CCC[C@H](O)[C@H]1C[C@H](CO)CC2 | – | > 100 | – | > 100 | – | > 100 | – | > 100 | – | > 100 | – | > 100 | – | > 100 | – | > 100 | – | > 100 | – | –
O=C(NNc1ccc(F)cc1)C1CCC(CNS(=O)(=O)c2ccc(Cl)c(Cl)c2)CC1 (stereo not drawn) | – | – | 7.91 | 28.5 | 14.4 | > 50 | > 50 | > 50 | 28.9 | > 50 | 6.51 | 33.9 | – | – | 9.03 | > 50 | 1.74 | 16.4 | > 50 | 5.52
COC(=O)C[CH2][Ge]([CH3])([CH3])[S]c1ccccc1 | – | > 100 | 51.2 | > 100 | 30.4 | 69.9 | 27.4 | 71.8 | 23.5 | 67.8 | 33.4 | > 100 | 44.2 | > 100 | 16.7 | 31.4 | 55.7 | > 100 | – | –
CCOC(=O)c1ccc2c(c1)nc(/C=C/c1ccc(Cl)cc1)n2-c1cc(C(C)(C)C)[nH]n1 | > 100 | > 100 | 6.84 | > 100 | 28.6 | > 100 | – | – | 4.28 | 14.8 | 3.42 | 12.4 | 11.3 | > 100 | 12.8 | > 100 | 3.11 | 7.2 | > 100 | 21.5
NC1=NN(c2ccccc2)C(=O)C1/C(=N\NC(=O)c1cc2ccccc2cc1O)C(=O)Nc1cccc(C(F)(F)F)c1 (stereo not drawn) | – | > 100 | – | 71.1 | – | > 100 | – | 93.8 | – | – | – | 94.9 | – | > 100 | – | > 100 | – | > 100 | – | –
COc1ccc2c(c1)[n+]([O-])c(-c1ccc(Br)cc1)c(N)[n+]2[O-] | – | – | – | > 100 | – | 32.9 | – | > 100 | – | > 100 | – | > 100 | – | > 100 | – | > 100 | – | – | – | –
CC1(c2cccc(N)c2)C2C(=O)NC(=O)C1C(=O)NC2=O (stereo not drawn) | – | > 100 | – | > 100 | – | 50.2 | – | 57.7 | – | 91.5 | – | – | – | > 100 | – | > 100 | – | > 100 | – | –
N#Cc1cc([N+](=O)[O-])ccc1NC(=O)C(F)(F)F | – | > 100 | – | > 100 | – | 44.6 | – | > 100 | – | > 100 | – | > 61.5 | – | > 67.6 | – | > 55.8 | – | > 100 | – | –
C/C=C(/CCC1NCCC2c3ccccc3NC12)[Si](C)(C)C (stereo not drawn) | – | 3.61 | – | 14.2 | – | 3.15 | – | 26.7 | – | 29.1 | – | 11.9 | – | 8.53 | – | 9.68 | – | 28.8 | – | –
COc1cccc(NC(=O)C(C)(C)C)c1SSc1c(NC(=O)C(C)(C)C)cccc1OC | – | > 100 | – | 51.4 | – | 69.9 | – | > 100 | – | > 100 | – | 42.8 | – | > 65.1 | – | 33.1 | – | > 100 | – | –
C1COCCOCCOCCOCCOCCO1.[Cl][Sn]([Cl])([c]1ccccc1)[c]1ccccc1 | 6.06 | 18.9 | 2.08 | 4.63 | 1.83 | 4.34 | 1.7 | 3.25 | 16.6 | 30.2 | 5.53 | 17.3 | 7.28 | 18.9 | 1.65 | 3.28 | 2.78 | 7.01 | – | –
